Measurements as given in PMC6576746, “Rational discovery of dual-indication multi-target PDE/Kinase inhibitor for precision anti-cancer therapy using structural systems pharmacology” (PLoS Computational Biology, 2019).

Experiments:
Assay in all cases: cells
Design in all cases: species or system panel of human cancer cell lines; Eurofins OncoPanel proliferation; nuclei count by high-content fluorescence imaging, 10-point dose response
[1] = system: 769-P; conditions: Homo sapiens, 769-P, 72 h, cell count, 3 days
Summary of the method: (§1)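 Cells in RPMI 1640/10% FBS or special medium received compound the day after seeding, with a time-zero plate; 3-day incubation at 37°C, 5% CO2. Nuclei imaged by fluorescence microscopy; 10 half-log doses from 100 μM, 0.1% DMSO. EC50, IC50, GI50 and activity area (0–10) from curve fits.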

[2] = system: A-673; conditions: Homo sapiens, A673, 72 h, cell count, 3 days
Summary of the method: as §1

[3] = system: BT-549; conditions: Homo sapiens, BT-549, 72 h, cell count, 3 days
Summary of the method: as §1

[4] = system: CAL-62; conditions: Homo sapiens, CAL-62, 72 h, cell count, 3 days
Summary of the method: as §1

[5] = system: HLE; conditions: Homo sapiens, HLE, 72 h, cell count, 3 days
Summary of the method: as §1

[6] = system: J82; conditions: Homo sapiens, J82, 72 h, cell count, 3 days
Summary of the method: as §1

[7] = system: M059J; conditions: Homo sapiens, M059J, 72 h, cell count, 3 days
Summary of the method: as §1

[8] = system: MCF7; conditions: Homo sapiens, MCF7, 72 h, cell count, 3 days
Summary of the method: as §1

[9] = system: RPMI 8226; conditions: Homo sapiens, RPMI-8226, 72 h, cell count, 3 days
Summary of the method: as §1

[10] = system: SCaBER; conditions: Homo sapiens, SCaBER, 72 h, cell count, 3 days
Summary of the method: as §1

[11] = system: SK-LMS-1; conditions: Homo sapiens, SK-LMS-1, 72 h, cell count, 3 days
Summary of the method: as §1

[12] = system: SW1353; conditions: Homo sapiens, SW1353, 72 h, cell count, 3 days
Summary of the method: as §1

[13] = system: SW954; conditions: Homo sapiens, SW 954, 72 h, cell count, 3 days
Summary of the method: as §1

[14] = system: SW982; conditions: Homo sapiens, SW982, 72 h, cell count, 3 days
Summary of the method: as §1

[15] = 50% of maximum possible response

IC50 [3, 15]: 15.4 µM
GI50 ([3]; corrected for time zero): 11.3 µM
EC50 ([3]; curve inflection point): 12.7 µM
IC50 [8, 15]: 32.4 µM
GI50 ([8]; corrected for time zero): 19 µM
EC50 ([8]; curve inflection point): 16.1 µM
IC50 [11, 15]: 27.1 µM
GI50 ([11]; corrected for time zero): 21.5 µM
EC50 ([11]; curve inflection point): 27.1 µM
IC50 [12, 15]: 72.8 µM
GI50 ([12]; corrected for time zero): 60.9 µM
EC50 ([12]; curve inflection point): 72.8 µM
IC50 [13, 15]: 22.5 µM
GI50 ([13]; corrected for time zero): 20.5 µM
EC50 ([13]; curve inflection point): 22 µM
IC50 [14, 15]: 43.7 µM
GI50 ([14]; corrected for time zero): 31.3 µM
EC50 ([14]; curve inflection point): 43.7 µM
SMILES: C[C@@H]1CC(=O)NN=C1c1ccc(NN=C(C#N)C#N)cc1 [levosimendan]
IC50 [1, 15]: 40 µM
GI50 ([1]; corrected for time zero): 28.6 µM
EC50 ([1]; curve inflection point): 94.2 µM
IC50 [2, 15]: 57.6 µM
GI50 ([2]; corrected for time zero): 44 µM
EC50 ([2]; curve inflection point): 57.6 µM
IC50 [4, 15]: 12.3 µM
GI50 ([4]; corrected for time zero): 11.4 µM
EC50 ([4]; curve inflection point): 12.1 µM
IC50 [5, 15]: 26.5 µM
GI50 ([5]; corrected for time zero): 24.3 µM
EC50 ([5]; curve inflection point): 25.2 µM
IC50 [6, 15]: > 100 µM
GI50 ([6]; corrected for time zero): > 100 µM
EC50 ([6]; curve inflection point): > 100 µM
IC50 [7, 15]: 51.5 µM
GI50 ([7]; corrected for time zero): 38.5 µM
EC50 ([7]; curve inflection point): 48.8 µM
IC50 [9, 15]: 25.1 µM
GI50 ([9]; corrected for time zero): 17.1 µM
EC50 ([9]; curve inflection point): 25.1 µM
IC50 [10, 15]: 60.4 µM
GI50 ([10]; corrected for time zero): 56.5 µM
EC50 ([10]; curve inflection point): 60.4 µM
